Test results taken from patent publication US12077503B2, “Substituted cyclic amides and their use as herbicides” (FMC CORPORATION, priority 2015, dated 2024).

What was measured:
Type in all cases: in vivo
[1] = tested on: barnyardgrass (Echinochloa crus-galli); assay: Test G Pre-Emergence Protocol; conditions: Echinochloa crus-galli, pre-emergence, 312 h, evaluated after 13 days; for pest or weed control at 15.625 g/ha: 15.625 g ai/ha; for pest or weed control at 15.625 g/ha / pest or weed control at 250 g/ha: read-out: Barnyardgrass damage rating (100=total damage to plant; 0=no damage to plant); for pest or weed control at 62.5 g/ha: 62.5 g ai/ha, 100=total damage to plant, 0=no damage to plant, read-out: Barnyardgrass damage rating; for pest or weed control at 250 g/ha: 250 g ai/ha
In short: (§1)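 Glasshouse pre-emergence test: soil-sown seeds, sprayed after 1 d at 15.625, 62.5 or 250 g/ha. Conditions 24/16° C day/night, 14 h light, 65% humidity, watering twice daily. Rating 13 d post-spray (100 = total damage).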

corn (Zea mays) [2] = assay: Test G Pre-Emergence Protocol; conditions: Zea mays, pre-emergence, 312 h, evaluated after 13 days; for plant injury at 15.625 g/ha: 15.625 g ai/ha; for plant injury at 15.625 g/ha / plant injury at 250 g/ha: read-out: Corn damage rating (100=total damage to plant; 0=no damage to plant); for plant injury at 62.5 g/ha: 62.5 g ai/ha, 100=total damage to plant, 0=no damage to plant, read-out: Corn damage rating; for plant injury at 250 g/ha: 250 g ai/ha
In short: as §1

[3] = tested on: giant foxtail (Setaria faberi); assay: Test G Pre-Emergence Protocol; conditions: Setaria faberi, pre-emergence, 312 h, evaluated after 13 days; for pest or weed control at 15.625 g/ha: 15.625 g ai/ha; for pest or weed control at 15.625 g/ha / pest or weed control at 250 g/ha: read-out: Foxtail, Giant damage rating (100=total damage to plant; 0=no damage to plant); for pest or weed control at 62.5 g/ha: 62.5 g ai/ha, 100=total damage to plant, 0=no damage to plant, read-out: Foxtail, Giant damage rating; for pest or weed control at 250 g/ha: 250 g ai/ha
In short: as §1

[4] = tested on: ivy-leaved morning glory (Ipomoea hederacea); assay: Test G Pre-Emergence Protocol; conditions: Ipomoea, pre-emergence, 312 h, evaluated after 13 days; for pest or weed control at 15.625 g/ha: 15.625 g ai/ha; for pest or weed control at 15.625 g/ha / pest or weed control at 250 g/ha: read-out: Morningglory, Ivy-leaved damage rating (100=total damage to plant; 0=no damage to plant); for pest or weed control at 62.5 g/ha: 62.5 g ai/ha, 100=total damage to plant, 0=no damage to plant, read-out: Morningglory, Ivy-leaved damage rating; for pest or weed control at 250 g/ha: 250 g ai/ha
In short: as §1

[5] = tested on: redroot pigweed (Amaranthus retroflexus); assay: Test G Pre-Emergence Protocol; conditions: Amaranthus retroflexus, pre-emergence, 312 h, evaluated after 13 days; for pest or weed control at 15.625 g/ha: 15.625 g ai/ha; for pest or weed control at 15.625 g/ha / pest or weed control at 250 g/ha: read-out: Pigweed, Redroot damage rating (100=total damage to plant; 0=no damage to plant); for pest or weed control at 62.5 g/ha: 62.5 g ai/ha, 100=total damage to plant, 0=no damage to plant, read-out: Pigweed, Redroot damage rating; for pest or weed control at 250 g/ha: 250 g ai/ha
In short: as §1

[6] = tested on: velvetleaf (Abutilon theophrasti); assay: Test G Pre-Emergence Protocol; conditions: Abutilon theophrasti, pre-emergence, 312 h, evaluated after 13 days; for pest or weed control at 15.625 g/ha: 15.625 g ai/ha; for pest or weed control at 15.625 g/ha / pest or weed control at 250 g/ha: read-out: Velvetleaf damage rating (100=total damage to plant; 0=no damage to plant); for pest or weed control at 62.5 g/ha: 62.5 g ai/ha, 100=total damage to plant, 0=no damage to plant, read-out: Velvetleaf damage rating; for pest or weed control at 250 g/ha: 250 g ai/ha
In short: as §1

[7] = tested on: barnyardgrass (Echinochloa crus-galli); assay: Test G Post-Emergence Protocol; conditions: Echinochloa crus-galli, post-emergence, 312 h, read-out: Barnyardgrass damage rating; for pest or weed control at 15.625 g/ha: 15.625 g ai/ha, evaluated after 13 days (100=total damage to plant; 0=no damage to plant); for pest or weed control at 62.5 g/ha: 62.5 g ai/ha; for pest or weed control at 62.5 g/ha / pest or weed control at 250 g/ha: evaluated after 13 days, 100=total damage to plant, 0=no damage to plant; for pest or weed control at 250 g/ha: 250 g ai/ha
In short: (§2)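 Foliar application was made 8 days after sowing, using an aqueous spray of the active in acetone/water (50:50) with 0.5% Tween 20, at doses of 15.625, 62.5 or 250 g/ha. Injury was assessed 13 days later, where 100 meant the plant was fully damaged.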

corn (Zea mays) [8] = assay: Test G Post-Emergence Protocol; conditions: Zea mays, post-emergence, 312 h, read-out: Corn damage rating; for plant injury at 15.625 g/ha: 15.625 g ai/ha, evaluated after 13 days (100=total damage to plant; 0=no damage to plant); for plant injury at 62.5 g/ha: 62.5 g ai/ha; for plant injury at 62.5 g/ha / plant injury at 250 g/ha: evaluated after 13 days, 100=total damage to plant, 0=no damage to plant; for plant injury at 250 g/ha: 250 g ai/ha
In short: as §2

[9] = tested on: giant foxtail (Setaria faberi); assay: Test G Post-Emergence Protocol; conditions: Setaria faberi, post-emergence, 312 h, read-out: Foxtail, Giant damage rating; for pest or weed control at 15.625 g/ha: 15.625 g ai/ha, evaluated after 13 days (100=total damage to plant; 0=no damage to plant); for pest or weed control at 62.5 g/ha: 62.5 g ai/ha; for pest or weed control at 62.5 g/ha / pest or weed control at 250 g/ha: evaluated after 13 days, 100=total damage to plant, 0=no damage to plant; for pest or weed control at 250 g/ha: 250 g ai/ha
In short: as §2

[10] = tested on: ivy-leaved morning glory (Ipomoea hederacea); assay: Test G Post-Emergence Protocol; conditions: Ipomoea, post-emergence, 312 h, read-out: Morningglory, Ivy-leaved damage rating; for pest or weed control at 15.625 g/ha: 15.625 g ai/ha, evaluated after 13 days (100=total damage to plant; 0=no damage to plant); for pest or weed control at 62.5 g/ha: 62.5 g ai/ha; for pest or weed control at 62.5 g/ha / pest or weed control at 250 g/ha: evaluated after 13 days, 100=total damage to plant, 0=no damage to plant; for pest or weed control at 250 g/ha: 250 g ai/ha
In short: as §2

[11] = tested on: redroot pigweed (Amaranthus retroflexus); assay: Test G Post-Emergence Protocol; conditions: Amaranthus retroflexus, post-emergence, 312 h, read-out: Pigweed, Redroot damage rating; for pest or weed control at 15.625 g/ha: 15.625 g ai/ha, evaluated after 13 days (100=total damage to plant; 0=no damage to plant); for pest or weed control at 62.5 g/ha: 62.5 g ai/ha; for pest or weed control at 62.5 g/ha / pest or weed control at 250 g/ha: evaluated after 13 days, 100=total damage to plant, 0=no damage to plant; for pest or weed control at 250 g/ha: 250 g ai/ha
In short: as §2

[12] = tested on: velvetleaf (Abutilon theophrasti); assay: Test G Post-Emergence Protocol; conditions: Abutilon theophrasti, post-emergence, 312 h, read-out: Velvetleaf damage rating; for pest or weed control at 15.625 g/ha: 15.625 g ai/ha, evaluated after 13 days (100=total damage to plant; 0=no damage to plant); for pest or weed control at 62.5 g/ha: 62.5 g ai/ha; for pest or weed control at 62.5 g/ha / pest or weed control at 250 g/ha: evaluated after 13 days, 100=total damage to plant, 0=no damage to plant; for pest or weed control at 250 g/ha: 250 g ai/ha
In short: as §2

SMILES	pest or weed control at 15.625 g/ha [1]	pest or weed control at 62.5 g/ha [1]	pest or weed control at 250 g/ha [1]	plant injury at 15.625 g/ha (corn (Zea mays) [2])	plant injury at 62.5 g/ha (corn (Zea mays) [2])	plant injury at 250 g/ha (corn (Zea mays) [2])	pest or weed control at 15.625 g/ha [3]	pest or weed control at 62.5 g/ha [3]	pest or weed control at 250 g/ha [3]	pest or weed control at 15.625 g/ha [4]	pest or weed control at 62.5 g/ha [4]	pest or weed control at 250 g/ha [4]	pest or weed control at 15.625 g/ha [5]	pest or weed control at 62.5 g/ha [5]	pest or weed control at 250 g/ha [5]	pest or weed control at 15.625 g/ha [6]	pest or weed control at 62.5 g/ha [6]	pest or weed control at 250 g/ha [6]	pest or weed control at 15.625 g/ha [7]	pest or weed control at 62.5 g/ha [7]	further results
COc1c(F)cc(C2CN(C)C(=O)C2C(=O)Nc2cccc(F)c2F)cc1Cl (stereo not drawn) [Compound 1709]	60%	70%	80%	0%	70%	90%	70%	80%	90%	0%	10%	20%	0%	20%	50%	0%	20%	30%	30%	70%	pest or weed control at 250 g/ha [7]: 80%; plant injury at 15.625 g/ha (corn (Zea mays) [8]): 30%; plant injury at 62.5 g/ha (corn (Zea mays) [8]): 60%; plant injury at 250 g/ha (corn (Zea mays) [8]): 80%; pest or weed control at 15.625 g/ha [9]: 70%; pest or weed control at 62.5 g/ha [9]: 80%; pest or weed control at 250 g/ha [9]: 80%; pest or weed control at 15.625 g/ha [10]: 10%; pest or weed control at 62.5 g/ha [10]: 50%; pest or weed control at 250 g/ha [10]: 70%; pest or weed control at 15.625 g/ha [11]: 20%; pest or weed control at 62.5 g/ha [11]: 10%; pest or weed control at 250 g/ha [11]: 30%; pest or weed control at 15.625 g/ha [12]: 20%; pest or weed control at 62.5 g/ha [12]: 10%; pest or weed control at 250 g/ha [12]: 50%
COc1cc(C2CN(C)C(=O)C2C(=O)Nc2cccc(F)c2F)cc(OC)c1F (stereo not drawn) [Compound 1711]	30%	10%	80%	0%	0%	20%	70%	70%	90%	0%	10%	10%	0%	0%	0%	0%	0%	0%	30%	70%	pest or weed control at 250 g/ha [7]: 80%; plant injury at 15.625 g/ha (corn (Zea mays) [8]): 0%; plant injury at 62.5 g/ha (corn (Zea mays) [8]): 10%; plant injury at 250 g/ha (corn (Zea mays) [8]): 40%; pest or weed control at 15.625 g/ha [9]: 70%; pest or weed control at 62.5 g/ha [9]: 80%; pest or weed control at 250 g/ha [9]: 80%; pest or weed control at 15.625 g/ha [10]: 10%; pest or weed control at 62.5 g/ha [10]: 30%; pest or weed control at 250 g/ha [10]: 70%; pest or weed control at 15.625 g/ha [11]: 0%; pest or weed control at 62.5 g/ha [11]: 0%; pest or weed control at 250 g/ha [11]: 0%; pest or weed control at 15.625 g/ha [12]: 0%; pest or weed control at 62.5 g/ha [12]: 0%; pest or weed control at 250 g/ha [12]: 0%
Cc1cc(C2CN(C)C(=O)C2C(=O)Nc2cccc(F)c2F)cc(C)c1F (stereo not drawn) [Compound 1712]	60%	80%	90%	0%	10%	70%	80%	90%	90%	0%	0%	20%	10%	0%	10%	0%	0%	20%	50%	80%	pest or weed control at 250 g/ha [7]: 90%; plant injury at 15.625 g/ha (corn (Zea mays) [8]): 40%; plant injury at 62.5 g/ha (corn (Zea mays) [8]): 70%; plant injury at 250 g/ha (corn (Zea mays) [8]): 70%; pest or weed control at 15.625 g/ha [9]: 80%; pest or weed control at 62.5 g/ha [9]: 80%; pest or weed control at 250 g/ha [9]: 80%; pest or weed control at 15.625 g/ha [10]: 10%; pest or weed control at 62.5 g/ha [10]: 30%; pest or weed control at 250 g/ha [10]: 70%; pest or weed control at 15.625 g/ha [11]: 0%; pest or weed control at 62.5 g/ha [11]: 20%; pest or weed control at 250 g/ha [11]: 20%; pest or weed control at 15.625 g/ha [12]: 10%; pest or weed control at 62.5 g/ha [12]: 10%; pest or weed control at 250 g/ha [12]: 40%
